Measured values: PubChem BioAssay AID540323 (Johns Hopkins Ion Channel Center, 2011)
Calls of active or inactive are those of the source.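 Rule for the calls: active = peak hERG channel inhibition above 30% at some tested dose, together with a fitted dose response curve; inactive = no hERG inhibition at any dose, or no curve.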

The compounds below were run against Voltage-gated inwardly rectifying potassium channel KCNH2 (Homo sapiens) (UniProt Q12809) (assay: hERG channel inhibition, SAR follow-up, selectivity assay for KCNK9 inhibitor project, FluxOR Tl flux, hERG cells, CRC 2 (AID 540323)). Conditions: hERG-expressing cells, FluxOR thallium flux fluorescence; at 30 µM (top of the series); test wells contain dofetilide at its IC70.
Sequence of Voltage-gated inwardly rectifying potassium channel KCNH2 (Homo sapiens) (Q12809 whole entry, looked up): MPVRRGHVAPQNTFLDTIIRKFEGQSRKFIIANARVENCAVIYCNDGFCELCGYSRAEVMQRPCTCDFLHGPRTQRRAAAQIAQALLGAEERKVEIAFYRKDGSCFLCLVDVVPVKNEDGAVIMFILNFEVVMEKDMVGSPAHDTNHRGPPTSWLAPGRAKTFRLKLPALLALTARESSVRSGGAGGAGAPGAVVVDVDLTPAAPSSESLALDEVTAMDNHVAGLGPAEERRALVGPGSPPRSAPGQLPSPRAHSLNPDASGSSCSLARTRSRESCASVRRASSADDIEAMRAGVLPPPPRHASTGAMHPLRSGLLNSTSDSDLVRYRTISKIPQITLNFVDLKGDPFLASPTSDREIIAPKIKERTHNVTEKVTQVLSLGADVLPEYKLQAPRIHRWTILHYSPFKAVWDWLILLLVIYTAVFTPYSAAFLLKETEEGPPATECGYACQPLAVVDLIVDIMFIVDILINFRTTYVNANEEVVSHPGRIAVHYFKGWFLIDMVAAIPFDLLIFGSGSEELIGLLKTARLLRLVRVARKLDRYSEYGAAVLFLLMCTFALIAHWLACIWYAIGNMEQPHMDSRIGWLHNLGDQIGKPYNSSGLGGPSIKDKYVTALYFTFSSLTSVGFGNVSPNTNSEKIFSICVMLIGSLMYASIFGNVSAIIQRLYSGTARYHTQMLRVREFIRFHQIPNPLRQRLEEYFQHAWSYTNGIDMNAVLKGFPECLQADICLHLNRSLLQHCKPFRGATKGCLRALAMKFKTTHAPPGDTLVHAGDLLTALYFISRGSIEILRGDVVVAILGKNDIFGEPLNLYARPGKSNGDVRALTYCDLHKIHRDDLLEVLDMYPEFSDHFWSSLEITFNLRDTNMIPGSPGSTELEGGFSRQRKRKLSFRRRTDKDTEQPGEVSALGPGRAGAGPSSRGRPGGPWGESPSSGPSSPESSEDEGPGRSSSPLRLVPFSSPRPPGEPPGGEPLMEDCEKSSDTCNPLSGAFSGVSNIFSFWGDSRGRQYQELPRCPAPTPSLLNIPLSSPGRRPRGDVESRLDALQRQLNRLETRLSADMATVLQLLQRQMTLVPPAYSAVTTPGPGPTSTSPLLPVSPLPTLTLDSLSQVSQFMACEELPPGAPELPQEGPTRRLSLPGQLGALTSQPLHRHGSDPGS

| SMILES | fluorescence ratio, lower = inhibition |
| --- | --- |
| O=C(Nc1cccc(NC(=O)c2ccccc2C(F)(F)F)c1)c1ccccc1 | inactive |
| CCOc1ccccc1NC(=O)c1cccc(NC(=O)c2cccc(C(F)(F)F)c2)c1 | inactive |
| CC(c1ccco1)n1c(-c2ccoc2)n[nH]c1=S (centres undefined) | inactive |
| CCOc1ccccc1NC(=O)c1cccc(NC(=O)c2cccc(C)c2)c1 | inactive |
| O=C(Nc1cccc(NC(=O)c2ccc(C(F)(F)F)cc2)c1)c1ccccc1 | inactive |
| O=C(Nc1cccc(NC(=O)c2ccncc2)c1)c1ccccc1 | inactive |
| O=C(Nc1cccc(NC(=O)c2ccco2)c1)c1ccccc1 | inactive |
| O=C(Nc1cccc(NC(=O)c2cccc(Cl)c2)c1)c1ccccc1 | inactive |
| CCOc1ccccc1NC(=O)c1cccc(C(=O)NC2CCCC2)c1 | inactive |
| CCOc1ccccc1C(=O)Nc1cccc(NC(=O)c2cccc(C)c2)c1 | inactive |
| CC(c1ccccc1)n1c(-c2ccco2)n[nH]c1=S (centres undefined) | inactive |
| CC(C1CC2CCC1C2)n1c(-c2ccoc2)n[nH]c1=S (centres undefined) | inactive |
| CCOc1ccccc1NC(=O)c1cccc(NC(=O)CC2CCCC2)c1 | inactive |
| CCOc1ccccc1NC(=O)c1cccc(NC(=O)c2cccc(OC)c2)c1 | inactive |
| Cc1cccc(C(=O)Nc2ccccc2NC(=O)c2ccccc2)c1 | inactive |
| O=C(Nc1cccc(NC(=O)c2ccc(F)cc2)c1)c1ccccc1 | inactive |
| COc1ccccc1NC(=O)c1cccc(NC(=O)c2ccccc2)c1 | inactive |
| Cc1cccc(C(=O)Nc2cccc(NC(=O)c3cccc(C(F)(F)F)c3)c2)c1 | inactive |
| CC(C)(C)c1ccc(C(=O)Nc2cccc(NC(=O)c3ccccc3)c2)cc1 | inactive |
| Cc1ccc(C(=O)Nc2cccc(NC(=O)c3ccccc3)c2)cc1 | inactive |
| O=C(Nc1cccc(NC(=O)c2ccc(Cl)cc2)c1)c1ccccc1 | inactive |
| CCOc1ccccc1NC(=O)c1cccc(NC(=O)c2ccc(OC)cc2)c1 | inactive |
| Cc1ccccc1C(=O)Nc1cccc(NC(=O)c2ccccc2)c1 | inactive |

| SMILES | fluorescence ratio, lower = inhibition |
| --- | --- |
| Cc1cccc(C(=O)Nc2cccc(NC(=O)c3ccccc3C)c2)c1 | inactive |
| CCOc1ccccc1NC(=O)c1cccc(NC(=O)C2CCCO2)c1 (centres undefined) | inactive |
| O=C(Nc1cccc(NC(=O)c2ccccn2)c1)c1ccccc1 | inactive |
| COc1ccccc1C(=O)Nc1cccc(NC(=O)c2ccccc2C(C)C)c1 | inactive |
| CCOc1ccccc1NC(=O)c1cccc(NC(=O)c2cccc(Cl)c2)c1 | inactive |
| CCOc1ccccc1NC(=O)c1cccc(NC(=O)c2ccc(C)cc2)c1 | inactive |
| CCOc1ccccc1NC(=O)c1cccc(NC(=O)c2ccccc2OC)c1 | inactive |
| COc1ccccc1NC(=O)c1cccc(NC(=O)c2ccccc2OC)c1 | inactive |
| CCOc1ccccc1NC(=O)c1cccc(NC(=O)C2CCOC2)c1 (centres undefined) | inactive |
| O=C(Nc1cccc(NC(=O)c2cccnc2)c1)c1ccccc1 | inactive |
| O=C(Nc1cccc(NC(=O)c2ccccc2)c1)c1ccccc1 | inactive |
| CC(C1CC2CCC1C2)n1c(-c2ccco2)n[nH]c1=S (centres undefined) | inactive |
| COc1ccccc1C(=O)Nc1cccc(NC(=O)c2ccccc2)c1 | inactive |
| O=C(Nc1cccc(NC(=O)C2CCCCC2)c1)c1ccccc1 | inactive |
| COc1ccc(C(=O)Nc2cccc(NC(=O)c3cccc(C)c3)c2)cc1 | inactive |
| COc1ccc(-c2n[nH]c(=S)n2C(C)C2CC3CCC2C3)cc1 (centres undefined) | inactive |
| O=C(Nc1cccc(NC(=O)c2ccccc2Cl)c1)c1ccccc1 | inactive |
| COc1ccccc1C(=O)Nc1cccc(NC(=O)c2ccccc2OC(F)(F)F)c1 | inactive |
| Cc1cccc(C(=O)Nc2cccc(NC(=O)c3ccccc3OCC(C)C)c2)c1 | inactive |
| Cc1cccc(C(=O)Nc2cccc(NC(=O)c3ccc(C(F)(F)F)cc3)c2)c1 | inactive |
| O=C(Nc1cccc(NC(=O)c2ccsc2)c1)c1ccccc1 | inactive |
| Cc1ccc(-c2n[nH]c(=S)n2C(C)C2CC3CCC2C3)cc1 (centres undefined) | inactive |
| Cc1cccc(C(=O)Nc2cccc(NC(=O)c3ccccc3Cl)c2)c1 | inactive |

| SMILES | fluorescence ratio, lower = inhibition |
| --- | --- |
| Cc1cccc(C(=O)Nc2cccc(NC(=O)c3ccc(N(C)C)cc3)c2)c1 | inactive |
| CCOc1ccccc1C(=O)Nc1cccc(NC(=O)C2CCCC2)c1 | inactive |
| CCOc1ccccc1NC(=O)c1cccc(NC(=O)c2ccccc2C)c1 | inactive |
| Cc1cccc(C(=O)Nc2cccc(NC(=O)c3cccs3)c2)c1 | inactive |
| COc1ccccc1NC(=O)c1cccc(NC(=O)CC2CCCC2)c1 | inactive |
| Cc1cccc(C(=O)Nc2cccc(NC(=O)c3ccccc3OC(F)(F)F)c2)c1 | inactive |
| CCOc1ccccc1NC(=O)c1cccc(NC(=O)CC2CCCCC2)c1 | inactive |
| CCOc1ccccc1NC(=O)c1cccc(NC(=O)c2ccccc2C(F)(F)F)c1 | inactive |
| CCOc1ccccc1NC(=O)c1cccc(NC(=O)C2CC2)c1 | inactive |
| COc1cccc(C(=O)Nc2cccc(NC(=O)c3ccccc3)c2)c1 | inactive |
| Cc1cccc(C(=O)Nc2cccc(NC(=O)c3ccncc3)c2)c1 | inactive |
| CN(C)c1ccc(C(=O)Nc2cccc(NC(=O)c3ccccc3)c2)cc1 | inactive |
| O=C(Nc1cccc(NC(=O)c2cccc(F)c2)c1)c1ccccc1 | inactive |
| Cc1ccccc1-c1n[nH]c(=S)n1C(C)C1CC2CCC1C2 (centres undefined) | inactive |
| COc1cccc(C(=O)Nc2cccc(NC(=O)c3cccc(C)c3)c2)c1 | inactive |
| COc1ccccc1NC(=O)c1cccc(NC(=O)C2CCCCC2)c1 | inactive |
| COc1ccccc1-c1n[nH]c(=S)n1C(C)C1CC2CCC1C2 (centres undefined) | inactive |
| CCOc1ccccc1C(=O)Nc1cccc(NC(=O)c2ccccc2OC)c1 | inactive |
| CCOc1ccccc1NC(=O)c1cccc(NC(=O)C2CCCCC2)c1 | inactive |
| S=c1[nH]nc(-c2ccco2)n1CC1CCCCC1 | inactive |
| Cc1cccc(-c2n[nH]c(=S)n2C(C)C2CC3CCC2C3)c1 (centres undefined) | inactive |
| O=C(Nc1cccc(NC(=O)c2ccoc2)c1)c1ccccc1 | inactive |
| CC(C1CC2CCC1C2)n1c(-c2ccsc2)n[nH]c1=S (centres undefined) | inactive |

| SMILES | fluorescence ratio, lower = inhibition |
| --- | --- |
| CC(C)n1c(-c2ccco2)n[nH]c1=S | inactive |
| CCOc1ccccc1NC(=O)c1cccc(NC(=O)C2CCCC2)c1 | inactive |
| COc1ccccc1C(=O)Nc1cccc(NC(=O)c2ccccc2C)c1 | inactive |
| CCOc1ccccc1NC(=O)c1cccc(NC(=O)c2ccccc2)c1 | inactive |
| CC(C1CC2CCC1C2)n1c(C2CCOC2)n[nH]c1=S (centres undefined) | inactive |
| COc1cccc(OC)c1C(=O)Nc1cccc(NC(=O)c2cccc(C)c2)c1 | inactive |
| CCOc1ccccc1NC(=O)c1cccc(NC(=O)c2ccccc2Cl)c1 | inactive |
| Cc1cccc(C(=O)Nc2cccc(NC(=O)C3CCCCC3)c2)c1 | inactive |
| COc1ccccc1C(=O)Nc1cccc(NC(=O)c2ccccc2OC)c1 | inactive |
| CCOc1ccc(NC(=O)c2cccc(NC(=O)C3CCCC3)c2)cc1 | inactive |
| Cc1cccc(C(=O)Nc2cccc(NC(=O)c3ccc(Cl)cc3)c2)c1 | inactive |
| CCOc1ccccc1NC(=O)c1cccc(NC(=O)c2ccc(Cl)cc2)c1 | inactive |
| COc1ccc(C(=O)Nc2cccc(NC(=O)c3ccccc3)c2)cc1 | inactive |
| O=C(Nc1ccccc1Cl)c1cccc(NC(=O)C2CCCC2)c1 | inactive |
| Cc1cccc(S(=O)(=O)Nc2cccc(NC(=O)c3ccccc3)c2)c1 | inactive |
| Cc1cccc(C(=O)Nc2cccc(NC(=O)c3ccccc3C(C)C)c2)c1 | inactive |
| CC(C1CC2CCC1C2)n1c(-c2ccccc2Cl)n[nH]c1=S (centres undefined) | inactive |
| COc1ccccc1NC(=O)c1cccc(NC(=O)c2ccccc2C(F)(F)F)c1 | inactive |
| CCOc1ccccc1NC(=O)c1cccc(NC(=O)c2ccc(C(F)(F)F)cc2)c1 | inactive |
| COc1cccc(-c2n[nH]c(=S)n2C(C)C2CC3CCC2C3)c1 (centres undefined) | inactive |
| CC(C1CC2CCC1C2)n1c(-c2ccccc2)n[nH]c1=S (centres undefined) | inactive |
| O=C(Nc1cccc(NC(=O)c2cccc(C(F)(F)F)c2)c1)c1ccccc1 | inactive |
| O=C(Nc1cccc(NC(=O)c2cccs2)c1)c1ccccc1 | inactive |

Same assay, conditions: hERG-expressing cells, FluxOR thallium flux fluorescence; test wells contain dofetilide at its IC70

| SMILES | IC50 [µM] |
| --- | --- |
| Cc1cccc(C(=O)Nc2cccc(NC(=O)c3ccccc3)c2)c1 | 8.08 |
| Cc1cccc(C(=O)Nc2cccc(NC(=O)c3cccc(C)c3)c2)c1 | 12.4 |
